Values quoted from earlier work as cited in patent US20140032198A1, “APPLICATION OF MULTIDIMENSIONAL MATRIX FOR DRUG MOLECULAS DESIGN AND THE METHODOLOGIES FOR DRUG MOLECULAR DESIGN” (priority 2011, published 2014).

Settings: qualitative comparison within captopril series, historical data

## CCC(=O)O[C@@H](O[P@](=O)(CCCCc1ccccc1)CC(=O)N1C[C@H](C2CCCCC2)C[C@H]1C(=O)O)C(C)C [Fosinopril]
  toxicity and side effects profiles: relatively weaker

## Lisinopril
  toxicity and side effects profiles: relatively weaker

## Benazepril
  toxicity and side effects profiles: relatively weaker

## Ramipril
  toxicity and side effects profiles: best toxicity and side effects profiles

## CCOC(=O)[C@H](CCc1ccccc1)N[C@@H](C)C(=O)N1Cc2ccccc2C[C@H]1C(=O)O [Quinapril]
  toxicity and side effects profiles: relatively weaker
